Source: PubChem BioAssay AID248 (DTP/NCI, 2004)
“And” between values parts separate entries of the source, which are not always exact repeats. Equal entries are not always repeated. Toxic doses and inconclusive results are not listed. Rule as the data show it: active = T/C of 150% or more; inactive = T/C below 125%.

Tested on: L1210 leukemia ip in BDF1 mice, survival T/C
Test: NCI In Vivo Anticancer Drug Screen. Data for tumor model L1210 Leukemia (intraperitoneal) in B6D2F1 (BDF1) mice
Conditions: endpoint: mean survival time, higher = longer survival
How it was run: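 In this screen, tumor-bearing mice given compound are compared to those given vehicle, and their survival values are reported as a treated-to-control quotient.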

[1] = dose: 3.12 mg/kg/injection, schedule: Q01DX009 (ip), vehicle: saline
[2] = dose: 100.0 mg/kg/injection, schedule: Q01DX009 (ip), vehicle: saline with Tween-80
[3] = dose: 100.0 mg/kg/injection, schedule: Q04DX003 (ip), vehicle: saline with Tween-80
[4] = dose: 200.0 mg/kg/injection, schedule: Q01DX009 (ip), vehicle: saline with Tween-80
[5] = dose: 200.0 mg/kg/injection, schedule: Q04DX003 (ip), vehicle: saline with Tween-80
[6] = dose: 400.0 mg/kg/injection, schedule: Q01DX009 (ip), vehicle: saline with Tween-80
[7] = dose: 400.0 mg/kg/injection, schedule: Q04DX003 (ip), vehicle: saline with Tween-80
[8] = dose: 100.0 mg/kg/injection, schedule: Q01DX009 (ip), vehicle: Klucel (hydroxypropylcellulose) (HPC)
[9] = dose: 100.0 mg/kg/injection, schedule: Q04DX003 (ip), vehicle: Klucel (hydroxypropylcellulose) (HPC)
[10] = dose: 200.0 mg/kg/injection, schedule: Q01DX009 (ip), vehicle: Klucel (hydroxypropylcellulose) (HPC)
[11] = dose: 200.0 mg/kg/injection, schedule: Q04DX003 (ip), vehicle: Klucel (hydroxypropylcellulose) (HPC)
[12] = dose: 400.0 mg/kg/injection, schedule: Q01DX009 (ip), vehicle: Klucel (hydroxypropylcellulose) (HPC)
[13] = dose: 400.0 mg/kg/injection, schedule: Q04DX003 (ip), vehicle: Klucel (hydroxypropylcellulose) (HPC)
[14] = dose: 100.0 mg/kg/injection, schedule: Q01DX001 (ip), vehicle: saline
[15] = dose: 200.0 mg/kg/injection, schedule: Q01DX001 (ip), vehicle: saline
[16] = dose: 50.0 mg/kg/injection, schedule: Q01DX009 (ip), vehicle: Klucel (hydroxypropylcellulose) (HPC)
[17] = dose: 100.0 mg/kg/injection, schedule: Q04DX002 (ip), vehicle: saline with Tween-80
[18] = dose: 200.0 mg/kg/injection, schedule: Q04DX002 (ip), vehicle: saline with Tween-80
[19] = dose: 400.0 mg/kg/injection, schedule: Q04DX002 (ip), vehicle: saline with Tween-80
[20] = dose: 100.0 mg/kg/injection, schedule: Q01DX001 (ip), vehicle: Klucel (hydroxypropylcellulose) (HPC)
[21] = dose: 200.0 mg/kg/injection, schedule: Q01DX001 (ip), vehicle: Klucel (hydroxypropylcellulose) (HPC)

Measured: T/C

CC(C)=CCNc1ncnc2c1c(C#N)cn2C1OC(CO)C(O)C1O (centres undefined)
inactive: dose: 0.78 mg/kg/injection, schedule: Q01DX009 (ip), vehicle: saline 95 % of control | dose: 1.56 mg/kg/injection, schedule: Q01DX005 (ip), vehicle: saline 106 % of control | dose: 1.56 mg/kg/injection, schedule: Q01DX009 (ip), vehicle: saline 95 % of control | [1] 97 % of control

C1=CC2C3CCC(C3)C2C1 (centres undefined)
inactive: dose: 50.0 mg/kg/injection, schedule: Q01DX009 (ip), vehicle: saline with Tween-80 96 % of control | [2] 102 % of control and 88 % of control | [3] 98 % of control and 101 % of control | [4] 94 % of control and 108 % of control | [5] 93 % of control and 101 % of control | [6] 95 % of control | [7] 93 % of control and 96 % of control

O=C(CCl)N=c1cc(-c2ccc(Cl)cc2)ss1
inactive: dose: 50.0 mg/kg/injection, schedule: Q04DX002 (ip), vehicle: saline 98 % of control | dose: 100.0 mg/kg/injection, schedule: Q04DX002 (ip), vehicle: saline 98 % of control

Cc1cccc(C)c1NC(=O)COc1ccc(Cl)cc1
inactive: [8] 105 % of control | [9] 95 % of control | [10] 86 % of control | [11] 93 % of control | [12] 97 % of control | [13] 91 % of control

O=C1C=CC(=NCl)C=C1
inactive: dose: 1.25 mg/kg/injection, schedule: Q01DX015 (ip), vehicle: carboxymethylcellulose (CMC) 92 % of control | dose: 2.5 mg/kg/injection, schedule: Q01DX015 (ip), vehicle: carboxymethylcellulose (CMC) 91 % of control | dose: 5.0 mg/kg/injection, schedule: Q01DX001 (ip), vehicle: carboxymethylcellulose (CMC) 114 % of control | dose: 5.0 mg/kg/injection, schedule: Q01DX015 (ip), vehicle: carboxymethylcellulose (CMC) 95 % of control | dose: 10.0 mg/kg/injection, schedule: Q01DX001 (ip), vehicle: carboxymethylcellulose (CMC) 111 % of control

CC(c1ccccc1)S(=O)(=O)c1ccccc1 (centres undefined)
inactive: [14] 102 % of control | dose: 100.0 mg/kg/injection, schedule: Q01DX009 (ip), vehicle: saline 95 % of control | dose: 100.0 mg/kg/injection, schedule: Q04DX003 (ip), vehicle: saline 97 % of control | [15] 101 % of control | dose: 200.0 mg/kg/injection, schedule: Q01DX009 (ip), vehicle: saline 101 % of control | dose: 200.0 mg/kg/injection, schedule: Q04DX003 (ip), vehicle: saline 95 % of control | dose: 400.0 mg/kg/injection, schedule: Q01DX001 (ip), vehicle: saline 95 % of control | dose: 400.0 mg/kg/injection, schedule: Q01DX009 (ip), vehicle: saline 97 % of control | dose: 400.0 mg/kg/injection, schedule: Q04DX003 (ip), vehicle: saline 95 % of control

CNC(=O)ON=C1CCC(CC2CCCCC2)CC1 (centres undefined)
inactive: [16] 100 % of control | [8] 91 % of control | [9] 92 % of control | [10] 96 % of control | [11] 94 % of control

O=C(NC(CSC(=O)OCc1ccccc1)C(=O)Oc1ccc([N+](=O)[O-])cc1)OCc1ccccc1 (centres undefined)
inactive: [8] 104 % of control | [9] 97 % of control | [10] 114 % of control | [11] 100 % of control | [12] 109 % of control | [13] 103 % of control

CCc1cc(C)cc(OC(=O)Nc2ccccc2)c1
inactive: [2] 87 % of control | [3] 93 % of control | [4] 88 % of control | [5] 93 % of control | [6] 92 % of control

CC1(c2ccco2)CCC(=O)CC1=O (centres undefined)
inactive: [9] 101 % of control | [11] 98 % of control | [13] 98 % of control

COc1ccc(COC(=O)Nc2cccc(Cl)c2C)cc1
inactive: dose: 100.0 mg/kg/injection, schedule: Q01DX001 (ip), vehicle: saline with Tween-80 90 % of control | [2] 97 % of control and 98 % of control | [17] 95 % of control and 104 % of control | [3] 93 % of control | dose: 200.0 mg/kg/injection, schedule: Q01DX001 (ip), vehicle: saline with Tween-80 92 % of control | [4] 97 % of control and 89 % of control | [18] 101 % of control and 87 % of control | [5] 93 % of control | dose: 400.0 mg/kg/injection, schedule: Q01DX001 (ip), vehicle: saline with Tween-80 87 % of control | [6] 93 % of control | [19] 96 % of control and 101 % of control | [7] 96 % of control

Cc1ccc(-n2c(O)c(N=Nc3ccc(Cl)cc3)c(=O)n(-c3ccc(Cl)cc3)c2=S)cc1
inactive: dose: 50.0 mg/kg/injection, schedule: Q01DX001 (ip), vehicle: Klucel (hydroxypropylcellulose) (HPC) 100 % of control | [20] 105 % of control | [21] 95 % of control

O=C(NC(=S)Nc1nc(-c2ccccc2)cs1)c1ccccc1
inactive: dose: 100.0 mg/kg/injection, schedule: Q01DX001 (ip), vehicle: gum acacia 95 % of control | dose: 200.0 mg/kg/injection, schedule: Q01DX001 (ip), vehicle: gum acacia 103 % of control | dose: 400.0 mg/kg/injection, schedule: Q01DX001 (ip), vehicle: gum acacia 103 % of control

O=C(CNC(=O)c1ccccc1)N/N=C\c1c[nH]c2ccccc12
inactive: [2] 97 % of control | [4] 99 % of control | [6] 100 % of control

O=C(/C(=C\c1ccccc1)CBr)c1ccc(Br)cc1
inactive: [1] 100 % of control | dose: 6.25 mg/kg/injection, schedule: Q01DX009 (ip), vehicle: saline 100 % of control | dose: 12.5 mg/kg/injection, schedule: Q01DX009 (ip), vehicle: saline 94 % of control and 89 % of control | dose: 12.5 mg/kg/injection, schedule: Q04DX003 (ip), vehicle: saline with Tween-80 96 % of control | dose: 25.0 mg/kg/injection, schedule: Q04DX003 (ip), vehicle: saline with Tween-80 93 % of control | dose: 50.0 mg/kg/injection, schedule: Q04DX003 (ip), vehicle: saline with Tween-80 94 % of control

COc1ccc(C(=O)c2c[nH]c3c(OC)ccc(O)c23)cc1
inactive: dose: 6.25 mg/kg/injection, schedule: Q04DX002 (ip), vehicle: saline with Tween-80 95 % of control | dose: 12.5 mg/kg/injection, schedule: Q04DX002 (ip), vehicle: saline with Tween-80 95 % of control | dose: 25.0 mg/kg/injection, schedule: Q04DX002 (ip), vehicle: saline with Tween-80 91 % of control

COc1ccc(-n2c(=O)c(N=Nc3ccccc3C)c(O)n(-c3ccccc3OC)c2=S)cc1
inactive: dose: 75.0 mg/kg/injection, schedule: Q01DX001 (ip), vehicle: Klucel (hydroxypropylcellulose) (HPC) 97 % of control | dose: 150.0 mg/kg/injection, schedule: Q01DX001 (ip), vehicle: Klucel (hydroxypropylcellulose) (HPC) 92 % of control

S=C(Nc1nccs1)Nc1nccs1
inactive: [20] 100 % of control | [21] 97 % of control | dose: 400.0 mg/kg/injection, schedule: Q01DX001 (ip), vehicle: Klucel (hydroxypropylcellulose) (HPC) 89 % of control

COc1cc(C=O)c([N+](=O)[O-])cc1OC
inactive: [14] 102 % of control | [15] 102 % of control

Nc1ccn(C2OC(COP(=O)(O)Oc3ccccc3)C(O)C2O)c(=O)n1 (centres undefined)
inactive: dose: 75.0 mg/kg/injection, schedule: Q01DX001 (ip), vehicle: saline 109 % of control | dose: 150.0 mg/kg/injection, schedule: Q01DX001 (ip), vehicle: saline 113 % of control

Nc1ncnc(NC2CCCCC2)n1
inactive: dose: 6.25 mg/kg/injection, schedule: Q01DX009 (ip), vehicle: Klucel (hydroxypropylcellulose) (HPC) 100 % of control | dose: 12.5 mg/kg/injection, schedule: Q01DX009 (ip), vehicle: Klucel (hydroxypropylcellulose) (HPC) 94 % of control | dose: 25.0 mg/kg/injection, schedule: Q01DX009 (ip), vehicle: Klucel (hydroxypropylcellulose) (HPC) 97 % of control and 98 % of control | [16] 111 % of control | [9] 91 % of control | [13] 98 % of control

O=C(O)CCc1ccccc1-c1ccccc1
inactive: dose: 50.0 mg/kg/injection, schedule: Q04DX002 (ip), vehicle: saline with Tween-80 96 % of control | [17] 101 % of control | [18] 96 % of control | [19] 107 % of control

O=S(c1ccc(O)cc1)c1ccc(O)cc1
inactive: [3] 99 % of control | [5] 94 % of control | [7] 101 % of control
